Reference: patent publication US20260007684A1, “AMIDE DERIVATIVES FOR INHIBITING NLRP3 AND USES THEREOF” (Ventus Therapeutics U.S., Inc., priority 2023, published 2026)

Key:
human NLRP3 [1] = molecular target: T1, human NLRP3 (Homo sapiens (Human), UniProt Q96P20); assay: Scintillation Proximity (SPA) NLRP3 Assay: displacement of 3H-MCC950; format: binding
human NLRP3 [2] = molecular target: T1, human NLRP3; assay: Human PBMC NLRP3 Assay (LPS priming, ATP stimulation, cytokine measurement); format: cell-based; conditions: for IC50: read-out: PBMC IC50
[3] = displacement of 3H-MCC950, read-out: SPA IC50
[4] = human PBMC, LPS priming, ATP stimulation
[5] = SPA IC50, displacement of 3H-MCC950

T1 sequence (Q96P20 whole entry): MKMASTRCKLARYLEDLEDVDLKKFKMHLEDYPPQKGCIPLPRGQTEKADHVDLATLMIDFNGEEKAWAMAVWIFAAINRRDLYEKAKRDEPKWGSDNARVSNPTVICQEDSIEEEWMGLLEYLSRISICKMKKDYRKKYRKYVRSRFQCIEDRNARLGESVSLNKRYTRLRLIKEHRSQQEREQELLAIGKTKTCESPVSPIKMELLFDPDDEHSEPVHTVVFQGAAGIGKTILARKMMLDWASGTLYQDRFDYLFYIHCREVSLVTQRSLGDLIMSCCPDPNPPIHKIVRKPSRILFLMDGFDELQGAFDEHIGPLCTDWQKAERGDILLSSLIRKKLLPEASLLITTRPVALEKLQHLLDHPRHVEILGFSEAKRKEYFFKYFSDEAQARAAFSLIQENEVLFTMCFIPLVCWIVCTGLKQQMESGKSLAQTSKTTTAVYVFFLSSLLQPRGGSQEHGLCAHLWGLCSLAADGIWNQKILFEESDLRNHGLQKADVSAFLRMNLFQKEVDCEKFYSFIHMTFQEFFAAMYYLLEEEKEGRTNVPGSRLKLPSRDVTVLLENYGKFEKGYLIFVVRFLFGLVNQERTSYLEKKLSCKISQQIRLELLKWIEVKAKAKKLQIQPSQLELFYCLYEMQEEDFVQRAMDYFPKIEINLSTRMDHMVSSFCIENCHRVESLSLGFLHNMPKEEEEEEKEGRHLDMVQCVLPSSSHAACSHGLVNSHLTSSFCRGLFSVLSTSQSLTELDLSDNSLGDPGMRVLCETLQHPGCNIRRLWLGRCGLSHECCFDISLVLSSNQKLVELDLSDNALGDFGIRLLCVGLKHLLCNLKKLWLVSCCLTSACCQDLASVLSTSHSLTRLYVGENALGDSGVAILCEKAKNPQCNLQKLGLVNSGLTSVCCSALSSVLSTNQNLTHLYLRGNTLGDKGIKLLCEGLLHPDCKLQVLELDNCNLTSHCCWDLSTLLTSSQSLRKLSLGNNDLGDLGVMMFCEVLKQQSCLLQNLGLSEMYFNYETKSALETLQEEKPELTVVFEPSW

| IC50 (human NLRP3 [1]; [3]) | IC50 (human NLRP3 [2]; [4]) | Compound | further results |
| --- | --- | --- | --- |
| < 1 µM | < 0.01 µM | C[C@@H]1CCN(c2nnn[nH]2)C[C@H](NC(=O)C2(c3ccc(OC(F)F)cc3O)CC2)C1 (single isomer, unassigned) [70A*] | – |
| – | – | Cn1nnnc1N1CCC[C@@H](NC(=O)C2(c3ccc(Cl)cc3)CC2)C1 [Comparative Example F, (R)-1-(4-chlorophenyl)-N-(1-(1-methyl-1H-tetrazol-5-yl)piperidin-3-yl)cyclopropane-1-carboxamide, reference compound] | IC50 (human NLRP3 [2]): 8.4 µM |
| < 1 µM | 0.01 to 0.1 µM | C[C@@H]1CCN(c2nnn[nH]2)C[C@H](NC(=O)C2(c3cc(F)c(C(F)(F)F)cc3F)CC2)C1 (single isomer, unassigned) [7A*, 1-(2,5-difluoro-4-(trifluoromethyl)phenyl)-N-(5-methyl-1-(1H-tetrazol-5-yl)azepan-3-yl)cyclopropane-1-carboxamide] | – |
| < 1 µM | 0.01 to 0.1 µM | Cc1ccc(C2(C(=O)N[C@@H]3C[C@H](C)CCN(c4nnn[nH]4)C3)CC2)cc1 (single isomer, unassigned) [71A*] | – |
| < 1 µM | < 0.01 µM | C[C@@H]1CCN(c2nnn[nH]2)C[C@H](NC(=O)C2(c3ccc(C(F)F)cc3O)CC2)C1 (single isomer, unassigned) [30A*, 1-(4-(difluoromethyl)-2-hydroxyphenyl)-N-(5-methyl-1-(1H-tetrazol-5-yl)azepan-3-yl)cyclopropane-1-carboxamide] | – |
| < 1 µM | 0.01 to 0.1 µM | C[C@@H]1CCN(c2nnn[nH]2)C[C@H](NC(=O)C2(c3ccc(OC(F)F)c(F)c3)CC2)C1 (single isomer, unassigned) [73A*] | – |
| < 1 µM | 0.01 to 0.1 µM | C[C@@H]1CCN(c2nnn[nH]2)C[C@H](NC(=O)C2(c3ccc(Cl)c(F)c3)CC2)C1 (single isomer, unassigned) [65A*] | – |
| < 1 µM | 0.01 to 0.1 µM | C[C@@H]1CCN(c2nnn[nH]2)C[C@@H](NC(=O)C2(c3ccc(OC(F)F)cc3O)CC2)C1 (single isomer, unassigned) [70B*] | – |
| < 1 µM | 0.01 to 0.1 µM | C[C@@H]1CCN(c2nnn[nH]2)C[C@H](NC(=O)C2(c3ccc(C4CC4)cc3)CC2)C1 (single isomer, unassigned) [2A*] | – |
| < 1 µM | 0.01 to 0.1 µM | C[C@@H]1CCN(c2nnn[nH]2)C[C@H](NC(=O)C2(c3ccc(C(F)F)cc3)CC2)C1 (single isomer, unassigned) [5A*, 1-(4-(difluoromethyl)phenyl)-N-(5-methyl-1-(1H-tetrazol-5-yl)azepan-3-yl)cyclopropane-1-carboxamide] | – |
| < 1 µM | 0.1 to 0.5 µM | O=C(NC1CC(C(F)(F)F)CCN(c2nnn[nH]2)C1)C1(c2ccc(Cl)cc2)CC1 (racemic) [Rac-1, 1-(4-chlorophenyl)-N-[1-(1H-1,2,3,4-tetrazol-5-yl)-5-(trifluoromethyl)azepan-3-yl]cyclopropane-1-carboxamide] | – |
| < 1 µM | 0.01 to 0.1 µM | C[C@@H]1CCN(c2nnn[nH]2)C[C@H](NC(=O)C2(c3ccc(Cl)c(F)c3F)CC2)C1 (single isomer, unassigned) [4A*, 1-(4-chloro-2,3-difluorophenyl)-N-(5-methyl-1-(1H-tetrazol-5-yl)azepan-3-yl)cyclopropane-1-carboxamide] | – |
| – | – | O=C(N[C@@H]1CCCN(c2nnn[nH]2)C1)c1ccc(Cl)cc1 [Comparative Example G, (R)-N-(1-(1H-tetrazol-5-yl)piperidin-3-yl)-4-chlorobenzamide, reference compound] | IC50 (human NLRP3 [2]): > 100 µM |
| – | – | O=C(N[C@@H]1CCCN(c2ccccc2)C1)c1ccc(Cl)cc1 [Comparative Example J1, (R)-4-chloro-N-(1-phenylpiperidin-3-yl)benzamide, reference compound] | IC50 (human NLRP3 [2]): > 100 µM |
| – | – | O=C(N[C@H]1CCCN(c2ccccc2)C1)c1ccc(Cl)cc1 [Comparative Example J2, (S)-4-chloro-N-(1-phenylpiperidin-3-yl)benzamide, reference compound] | IC50 (human NLRP3 [2]): > 100 µM |
| – | > 0.5 µM | O=C(N[C@@H]1CCCN(c2nnn[nH]2)C1)C1(c2ccc(Cl)cc2F)CC1 [Compound 105, (R)-N-(1-(1H-tetrazol-5-yl)piperidin-3-yl)-1-(4-chloro-2-fluorophenyl)cyclopropane-1-carboxamide] | IC50 (human NLRP3 [2]): 0.85 µM; fold increase in potency as measured by PBMC IC50 (human NLRP3 [2]; relative to Compound 10A): 2.5 fold |
| – | – | O=C(Cc1ccc(Cl)cc1)N[C@@H]1CCCN(c2nnn[nH]2)C1 [Comparative Example H, (R)-N-(1-(1H-tetrazol-5-yl)piperidin-3-yl)-2-(4-chlorophenyl)acetamide, reference compound] | IC50 (human NLRP3 [2]): 10.5 µM |
| 1 to 10 µM | – | C[C@H]1CCN(c2nnn[nH]2)C[C@@H](NC(=O)C2(c3ccc(C4CC4)cc3)CC2)C1 (single isomer, unassigned) [2D*] | – |
| 10 to 50 µM | – | C[C@H]1CCN(c2nnn[nH]2)C[C@@H](NC(=O)C2(c3c(F)cc(Cl)cc3F)CC2)C1 (single isomer, unassigned) [72D*] | – |
| – | – | O=C(NC1CCC[C@H]2CC[C@@H]1N2c1nnn[nH]1)C1(c2ccc(C3CC3)cc2O)CC1 (single isomer, unassigned) [93D*] | IC50 (human NLRP3 [1]; [5]): 1 to 10 µM |
| 1 to 10 µM | – | C[C@H]1CCN(c2nnn[nH]2)C[C@@H](NC(=O)C2(c3ccc(OC(F)(F)F)cc3F)CC2)C1 (single isomer, unassigned) [64D*] | – |
| 10 to 50 µM | – | CC1(C)C[C@H](NC(=O)C2(c3ccc(Cl)cc3O)CC2)CN(c2nnn[nH]2)C1 (single isomer, unassigned) [42B*] | – |
| > 100 µM | – | C[C@@H]1[C@H](NC(=O)C2(c3ccc(Cl)cc3)CC2)CCCN1c1nnn[nH]1 [Compound 40A, 1-(4-chlorophenyl)-N-[(2R,3R)-2-methyl-1-(1H-tetrazol-5-yl)-3-piperidyl]cyclopropanecarboxamide] | – |
| – | – | C[C@H]1C[C@@H]2CC[C@H]([C@@H](NC(=O)C3(c4ccc(C(F)(F)F)cc4)CC3)C1)N2c1nnn[nH]1 [104B*, N-((1R,2S,4R,6S)-4-methyl-9-(1H-tetrazol-5-yl)-9-azabicyclo[4.2.1]nonan-2-yl)-1-(4-(trifluoromethyl)phenyl)cyclopropane-1-carboxamide] | IC50 (human NLRP3 [1]; [5]): 10 to 50 µM |
| – | – | O=C(N[C@@H]1CCC[C@H]2CC[C@@H]1N2c1nnn[nH]1)C1(c2ccc(Cl)cc2)CC1 (single isomer, unassigned) [9C*, N-(9-(1H-tetrazol-5-yl)-9-azabicyclo[4.2.1]nonan-2-yl)-1-(4-chlorophenyl)cyclopropane-1-carboxamide] | IC50 (human NLRP3 [1]; [5]): > 100 µM |
| 10 to 50 µM | – | C[C@H]1CCN(c2nnn[nH]2)C[C@@H](NC(=O)C2(c3cnc(Cl)cc3O)CC2)C1 (single isomer, unassigned) [99D*] | – |
| 1 to 10 µM | – | C[C@H]1CCN(c2nnn[nH]2)C[C@@H](NC(=O)C2(c3ccc(C(F)(F)F)c(F)c3O)CC2)C1 (single isomer, unassigned) [31D*, 1-(3-fluoro-2-hydroxy-4-(trifluoromethyl)phenyl)-N-(5-methyl-1-(1H-tetrazol-5-yl)azepan-3-yl)cyclopropane-1-carboxamide] | – |
| 1 to 10 µM | – | C[C@H]1CCN(c2nnn[nH]2)C[C@H](NC(=O)C2(c3ccc(C(F)(F)F)cc3)CC2)C1 (single isomer, unassigned) [61B*] | – |
| < 1 µM | – | C[C@H]1CC[C@@H](NC(=O)C2(c3ccc(Cl)cc3)CC2)CN(c2nnn[nH]2)C1 (single isomer, unassigned) [36A*, 1-(4-chlorophenyl)-N-(6-methyl-1-(1H-tetrazol-5-yl)azepan-3-yl)cyclopropane-1-carboxamide] | – |

| Compound | IC50 (human NLRP3 [1]; [3]) | IC50 (human NLRP3 [2]; [4]) | further results |
| --- | --- | --- | --- |
| O=C(N[C@@H]1CC[C@H]2CC[C@@H]1N2c1nnn[nH]1)C1(c2ccc(OC(F)F)cc2)CC1 [Compound 106, N-((1S,2R,5S)-8-(1H-tetrazol-5-yl)-8-azabicyclo[3.2.1]octan-2-yl)-1-(4-(difluoromethoxy)phenyl)cyclopropane-1-carboxamide] | – | > 0.5 µM | – |
| C[C@H]1C[C@H](NC(=O)C2(c3ccc(C(F)(F)F)cc3F)CC2)[C@@H]2CC[C@H]1N2c1nnn[nH]1 [84D*, 1-(2-fluoro-4-(trifluoromethyl)phenyl)-N-((1S,2S,4S,5R)-4-methy1-8-(1H-tetrazol-5-yl)-8-azabicyclo[3.2.1]octan-2-yl)cyclopropane-1-carboxamide] | > 100 µM | – | – |
| C[C@H]1C[C@@H](NC(=O)C2(c3ccc(OC(F)(F)F)cc3)CC2)[C@@H]2CC[C@H]1N2c1nnn[nH]1 [82C*, N-((1S,2R,4S,5R)-4-methyl-8-(1H-tetrazol-5-yl)-8-azabicyclo[3.2.1]octan-2-yl)-1-(4-(trifluoromethoxy)phenyl)cyclopropane-1-carboxamide] | > 100 µM | – | – |
| C[C@H]1C[C@@H](NC(=O)C2(c3ccc(OC(F)F)cc3O)CC2)[C@@H]2CC[C@H]1N2c1nnn[nH]1 [43C*, N-((1S,2R,4S,5R)-4-methy1-8-(1H-tetrazol-5-yl)-8-azabicyclo[3.2.1]octan-2-yl)-1-(4-(difluoromethoxy)-2-hydroxyphenyl)cyclopropane-1-carboxamide] | > 100 µM | – | – |
| C[C@H]1C[C@H](NC(=O)C2(c3ccc(C4CC4)c(F)c3O)CC2)[C@@H]2CC[C@H]1N2c1nnn[nH]1 [83D*, 1-(4-cyclopropyl-3-fluoro-2-hydroxyphenyl)-N-((1S,2S,4S,5R)-4-methy1-8-(1H-tetrazol-5-yl)-8-azabicyclo[3.2.1]octan-2-yl)cyclopropane-1-carboxamide] | > 100 µM | – | – |
| C[C@@H]1C[C@H](NC(=O)C2(c3ccc(OC(F)(F)F)cc3)CC2)[C@H]2CC[C@@H]1N2c1nnn[nH]1 [82B*, N-((1R,2S,4R,5S)-4-methyl-8-(1H-tetrazol-5-yl)-8-azabicyclo[3.2.1]octan-2-yl)-1-(4-(trifluoromethoxy)phenyl)cyclopropane-1-carboxamide] | > 100 µM | – | – |
| C[C@H]1C[C@@H](NC(=O)C2(c3ccc(C(F)F)cc3)CC2)[C@@H]2CC[C@H]1N2c1nnn[nH]1 [86C*, 1-(4-(difluoromethyl)phenyl)-N-((1S,2R,4S,5R)-4-methyl-8-(1H-tetrazol-5-yl)-8-azabicyclo[3.2.1]octan-2-yl)cyclopropane-1-carboxamide] | > 100 µM | – | – |
